Test results: ChEMBL document CHEMBL1201861, “Genomics of Drug Sensitity in Cancer screening data, Wellcome Trust Sanger Institute”

What was measured:
Experiment in all cases: cells
COLO-829 = assay type: functional, cell-based, Homo sapiens; conditions: Homo sapiens, COLO-829
Description: SANGER: Inhibition of human COLO-829 cell growth in a cell viability assay.

DB = assay type: functional, cell-based, Homo sapiens; conditions: Homo sapiens, DB
Description: SANGER: Inhibition of human DB cell growth in a cell viability assay.

DEL = assay type: functional, cell-based, Homo sapiens; conditions: Homo sapiens, DEL;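 further: growth inhibition of the human DEL cell line, read out with a cell viability assay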
Description: SANGER: Inhibition of human DEL cell growth in a cell viability assay.

DMS-114 = assay type: functional, cell-based, Homo sapiens; conditions: Homo sapiens, DMS-114
DOHH-2 = assay type: functional, cell-based, Homo sapiens; conditions: Homo sapiens, DOHH-2;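 further: growth inhibition of human DOHH-2 cells, read out with a cell viability assay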
Description: SANGER: Inhibition of human DOHH-2 cell growth in a cell viability assay.

ES3 = assay type: functional, cell-based, Homo sapiens; conditions: Homo sapiens, ES3;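 further: growth inhibition of ES3 cells, read out with a cell viability assay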
Description: SANGER: Inhibition of human ES3 cell growth in a cell viability assay.

ES4 = assay type: functional, cell-based, Homo sapiens; conditions: Homo sapiens, ES4;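 further: growth inhibition of human ES4 cells, read out by a cell viability assay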
Description: SANGER: Inhibition of human ES4 cell growth in a cell viability assay.

ES7 = assay type: functional, cell-based, Homo sapiens; conditions: Homo sapiens, ES7;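 further: growth inhibition of cultured human ES7 cells, read out as cell viability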
Description: SANGER: Inhibition of human ES7 cell growth in a cell viability assay.

EW-16 = assay type: functional, cell-based, Homo sapiens; conditions: Homo sapiens, EW-16;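 further: growth inhibition of human EW-16 cells, read out as cell viability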
Description: SANGER: Inhibition of human EW-16 cell growth in a cell viability assay.

HCC2218 = assay type: functional, cell-based, Homo sapiens; conditions: Homo sapiens, HCC2218;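 further: cell viability assay read-out, with IC50 given as the concentration that inhibits growth of the cell line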
Description: SANGER: Inhibition of human HCC2218 cell growth in a cell viability assay.

HEL = assay type: functional, cell-based, Homo sapiens; conditions: Homo sapiens, HEL;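 further: growth inhibition of HEL cells, read out with a cell viability assay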
Description: SANGER: Inhibition of human HEL cell growth in a cell viability assay.

HH = assay type: functional, cell-based, Homo sapiens; conditions: Homo sapiens, HH
Description: SANGER: Inhibition of human HH cell growth in a cell viability assay.

IST-MES1 = assay type: functional, cell-based, Homo sapiens; conditions: Homo sapiens, IST-MES1;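 further: growth inhibition of IST-MES1 cells, measured with a cell viability assay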
Description: SANGER: Inhibition of human IST-MES1 cell growth in a cell viability assay.

JAR = assay type: functional, cell-based, Homo sapiens; conditions: Homo sapiens, JAR;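 further: growth inhibition of human JAR cells determined with a cell viability assay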
Description: SANGER: Inhibition of human JAR cell growth in a cell viability assay.

K562 = assay type: functional, cell-based, Homo sapiens; conditions: Homo sapiens, K562
Description: SANGER: Inhibition of human K-562 cell growth in a cell viability assay.

K5 = assay type: functional, cell-based, Homo sapiens; conditions: Homo sapiens, K5
Description: SANGER: Inhibition of human K5 cell growth in a cell viability assay.

KE-37 = assay type: functional, cell-based, Homo sapiens; conditions: Homo sapiens, KE-37;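 further: growth inhibition of KE-37 cells, read out with a cell viability assay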
Description: SANGER: Inhibition of human KE-37 cell growth in a cell viability assay.

KG-1 = assay type: functional, cell-based, Homo sapiens; conditions: Homo sapiens, KG-1;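 further: growth inhibition of KG-1 cells, read out by a cell viability assay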
Description: SANGER: Inhibition of human KG-1 cell growth in a cell viability assay.

KGN = assay type: functional, cell-based, Homo sapiens; conditions: Homo sapiens, KGN;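 further: growth inhibition of KGN cells, read out with a cell viability assay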
Description: SANGER: Inhibition of human KGN cell growth in a cell viability assay.

KM12 = assay type: functional, cell-based, Homo sapiens; conditions: Homo sapiens, KM12;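 further: KM12 cell growth inhibition, read out with a cell viability assay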
Description: SANGER: Inhibition of human KM12 cell growth in a cell viability assay.

KY821 = assay type: functional, cell-based, Homo sapiens; conditions: Homo sapiens, KY821;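 further: growth inhibition of human KY821 cells, read out by a cell viability assay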
Description: SANGER: Inhibition of human KY821 cell growth in a cell viability assay.

KYSE-270 = assay type: functional, cell-based; conditions: Homo sapiens;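 further: cell growth inhibition measured with a viability assay in the human KYSE-270 line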
Description: SANGER: Inhibition of human KYSE-270 cell growth in a cell viability assay.

LAMA-84 = assay type: functional, cell-based, Homo sapiens; conditions: Homo sapiens, LAMA-84;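 further: growth inhibition of LAMA-84 cells, read out with a cell viability assay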
Description: SANGER: Inhibition of human LAMA-84 cell growth in a cell viability assay.

LAN-6 = assay type: functional, cell-based, Homo sapiens; conditions: Homo sapiens, LAN-6;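 further: growth inhibition of LAN-6 cells, determined with a cell viability assay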
Description: SANGER: Inhibition of human LAN-6 cell growth in a cell viability assay.

LB831-BLC = assay type: functional, cell-based, Homo sapiens; conditions: Homo sapiens, LB831-BLC;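 further: growth inhibition of LB831-BLC cells, read out with a cell viability assay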
Description: SANGER: Inhibition of human LB831-BLC cell growth in a cell viability assay.

LC-2-ad = assay type: functional, cell-based, Homo sapiens; conditions: Homo sapiens, LC-2-ad;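 further: growth inhibition of human LC-2-ad cells, read out with a cell viability assay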
Description: SANGER: Inhibition of human LC-2-ad cell growth in a cell viability assay.

LOX IMVI = assay type: functional, cell-based, Homo sapiens; conditions: Homo sapiens, LOX IMVI
Description: SANGER: Inhibition of human LOXIMVI cell growth in a cell viability assay.

LU-134-A = assay type: functional, cell-based, Homo sapiens; conditions: Homo sapiens, LU-134-A
Description: SANGER: Inhibition of human LU-134-A cell growth in a cell viability assay.

LU-139 = assay type: functional, cell-based, Homo sapiens; conditions: Homo sapiens, LU-139
Description: SANGER: Inhibition of human LU-139 cell growth in a cell viability assay.

MEG-01 = assay type: functional, cell-based, Homo sapiens; conditions: Homo sapiens, MEG-01;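 further: growth inhibition of MEG-01 cells, read out by a cell viability assay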
Description: SANGER: Inhibition of human MEG-01 cell growth in a cell viability assay.

MSTO-211H = assay type: functional, cell-based, Homo sapiens; conditions: Homo sapiens, MSTO-211H
Description: SANGER: Inhibition of human MSTO-211H cell growth in a cell viability assay.

MZ2-MEL = assay type: functional, cell-based, Homo sapiens; conditions: Homo sapiens, MZ2-MEL;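 further: growth inhibition of MZ2-MEL cells read out with a cell viability assay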
Description: SANGER: Inhibition of human MZ2-MEL cell growth in a cell viability assay.

Mo = assay type: functional, cell-based, Homo sapiens; conditions: Homo sapiens, Mo
Description: SANGER: Inhibition of human Mo-T cell growth in a cell viability assay.

NB69 = assay type: functional, cell-based, Homo sapiens; conditions: Homo sapiens, NB69;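 further: growth inhibition of NB69 cells, determined by a cell viability assay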
Description: SANGER: Inhibition of human NB69 cell growth in a cell viability assay.

NOS-1 = assay type: functional, cell-based, Homo sapiens; conditions: Homo sapiens, NOS-1;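 further: growth inhibition of the human NOS-1 cell line, read out with a cell viability assay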
Description: SANGER: Inhibition of human NOS-1 cell growth in a cell viability assay.

NTERA-2-cl-D1 = assay type: functional, cell-based, Homo sapiens; conditions: Homo sapiens, NTERA-2-cl-D1;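 further: inhibition of cell growth, measured with a cell viability assay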
Description: SANGER: Inhibition of human NTERA-S-cl-D1 cell growth in a cell viability assay.

P30-OHK = assay type: functional, cell-based, Homo sapiens; conditions: Homo sapiens, P30-OHK;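 further: growth inhibition of the P30-OHK cell line, read out with a cell viability assay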
Description: SANGER: Inhibition of human P30-OHK cell growth in a cell viability assay.

RCC10RGB = assay type: functional, cell-based, Homo sapiens; conditions: Homo sapiens, RCC10RGB;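 further: growth inhibition of human RCC10RGB cells, read out by a cell viability assay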
Description: SANGER: Inhibition of human RCC10RGB cell growth in a cell viability assay.

RS4-11 = assay type: functional, cell-based, Homo sapiens; conditions: Homo sapiens, RS4-11;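 further: growth inhibition of RS4-11 cells, read out by a cell viability assay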
Description: SANGER: Inhibition of human RS4-11 cell growth in a cell viability assay.

SHP77 = assay type: functional, cell-based, Homo sapiens, SHP-77; conditions: Homo sapiens, SHP77;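 further: growth inhibition of human SHP-77 cells measured by a cell viability assay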
Description: SANGER: Inhibition of human SHP-77 cell growth in a cell viability assay.

SK-MEL-2 = assay type: functional, cell-based, Homo sapiens; conditions: Homo sapiens, SK-MEL-2;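 further: growth inhibition of human SK-MEL-2 cells measured with a cell viability assay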
Description: SANGER: Inhibition of human SK-MEL-2 cell growth in a cell viability assay.

BB49-HNC = assay type: functional, cell-based, Homo sapiens; conditions: Homo sapiens, BB49-HNC;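 further: cell viability assay read-out, reported as inhibition of BB49-HNC cell growth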
Description: SANGER: Inhibition of human BB49-HNC cell growth in a cell viability assay.

BB65-RCC = assay type: functional, cell-based, Homo sapiens; conditions: Homo sapiens, BB65-RCC;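 further: growth inhibition of the cell line, measured with a cell viability assay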
Description: SANGER: Inhibition of human BB65-RCC cell growth in a cell viability assay.

C8166 = assay type: functional, cell-based, Homo sapiens; conditions: Homo sapiens, C8166;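 further: growth inhibition of human C8166 cells measured by a cell viability assay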
Description: SANGER: Inhibition of human C8166 cell growth in a cell viability assay.

TE-10 = assay type: functional, cell-based, Homo sapiens; conditions: Homo sapiens, TE-10;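 further: growth inhibition of TE-10 cells, measured by a cell viability assay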
Description: SANGER: Inhibition of human TE-10 cell growth in a cell viability assay.

TE-8 = assay type: functional, cell-based, Homo sapiens; conditions: Homo sapiens, TE-8;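 further: growth inhibition of TE-8 cells, measured with a cell viability readout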
Description: SANGER: Inhibition of human TE-8 cell growth in a cell viability assay.

TGBC24TKB = assay type: functional, cell-based; conditions: Homo sapiens;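 further: growth inhibition of human TGBC24TKB cells, read out with a cell viability assay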
Description: SANGER: Inhibition of human TGBC24TKB cell growth in a cell viability assay.

VA-ES-BJ = assay type: functional, cell-based, Homo sapiens; conditions: Homo sapiens, VA-ES-BJ;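 further: growth inhibition of the VA-ES-BJ cell line, read out by a cell viability assay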
Description: SANGER: Inhibition of human VA-ES-BJ cell growth in a cell viability assay.

CGTH-W-1 = assay type: functional, cell-based, Homo sapiens; conditions: Homo sapiens, CGTH-W-1;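 further: growth inhibition of human CGTH-W-1 cells measured by cell viability assay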
Description: SANGER: Inhibition of human CGTH-W-1 cell growth in a cell viability assay.

CC1(C)CCC(c2ccc(Cl)cc2)=C(CN2CCN(c3ccc(C(=O)NS(=O)(=O)c4ccc(N[C@H](CCN5CCOCC5)CSc5ccccc5)c(S(=O)(=O)C(F)(F)F)c4)cc3)CC2)C1 [NAVITOCLAX]
IC50 (COLO-829): > 2 µM
IC50 (DB): 0.571 µM
IC50 (DEL): 1.75 µM
IC50 (DMS-114): > 2 µM
IC50 (DOHH-2): 0.41 µM
IC50 (ES3): > 2 µM
IC50 (ES4): 1.35 µM
IC50 (ES7): 1.28 µM
IC50 (EW-16): 0.813 µM
IC50 (HCC2218): > 2 µM
IC50 (HEL): 1.31 µM
IC50 (HH): > 2 µM
IC50 (IST-MES1): > 2 µM
IC50 (JAR): > 2 µM
IC50 (K562): > 2 µM
IC50 (K5): > 2 µM
IC50 (KE-37): 0.114 µM
IC50 (KG-1): 0.0449 µM
IC50 (KGN): > 2 µM
IC50 (KM12): > 2 µM
IC50 (KY821): 0.0297 µM
IC50 (KYSE-270): > 2 µM
IC50 (LAMA-84): 0.592 µM
IC50 (LAN-6): > 2 µM
IC50 (LB831-BLC): > 2 µM
IC50 (LC-2-ad): > 2 µM
IC50 (LOX IMVI): > 2 µM
IC50 (LU-134-A): 0.187 µM
IC50 (LU-139): 0.205 µM
IC50 (MEG-01): 0.583 µM
IC50 (MSTO-211H): > 2 µM
IC50 (MZ2-MEL): > 2 µM
IC50 (Mo): > 2 µM
IC50 (NB69): 1.46 µM
IC50 (NOS-1): > 2 µM
IC50 (NTERA-2-cl-D1): 0.5 µM
IC50 (P30-OHK): 1.05 µM
IC50 (RCC10RGB): > 2 µM
IC50 (RS4-11): 0.0259 µM
IC50 (SHP77): > 2 µM
IC50 (SK-MEL-2): > 2 µM
IC50 (BB49-HNC): > 2 µM
IC50 (BB65-RCC): > 2 µM
IC50 (C8166): > 2 µM
IC50 (TE-10): > 2 µM
IC50 (TE-8): > 2 µM
IC50 (TGBC24TKB): 0.458 µM
IC50 (VA-ES-BJ): > 2 µM
IC50 (CGTH-W-1): > 2 µM

NC(=O)c1ccc(N(C(N)=O)c2c(F)cccc2F)nc1-c1ccc(F)cc1F [VX-702]
IC50 (COLO-829): > 2 µM
IC50 (DB): > 2 µM
IC50 (DEL): > 2 µM
IC50 (DMS-114): > 2 µM
IC50 (DOHH-2): > 2 µM
IC50 (ES3): > 2 µM
IC50 (ES4): > 2 µM
IC50 (ES7): > 2 µM
IC50 (EW-16): > 2 µM
IC50 (HCC2218): 0.497 µM
IC50 (HEL): > 2 µM
IC50 (HH): > 2 µM
IC50 (IST-MES1): > 2 µM
IC50 (JAR): > 2 µM
IC50 (K562): > 2 µM
IC50 (K5): 0.229 µM
IC50 (KE-37): > 2 µM
IC50 (KG-1): > 2 µM
IC50 (KGN): > 2 µM
IC50 (KM12): > 2 µM
IC50 (KY821): 0.396 µM
IC50 (KYSE-270): > 2 µM
IC50 (LAMA-84): > 2 µM
IC50 (LAN-6): > 2 µM
IC50 (LB831-BLC): > 2 µM
IC50 (LC-2-ad): > 2 µM
IC50 (LOX IMVI): > 2 µM
IC50 (LU-134-A): > 2 µM
IC50 (LU-139): 0.194 µM
IC50 (MEG-01): > 2 µM
IC50 (MSTO-211H): > 2 µM
IC50 (MZ2-MEL): > 2 µM
IC50 (Mo): > 2 µM
IC50 (NB69): > 2 µM
IC50 (NOS-1): > 2 µM
IC50 (NTERA-2-cl-D1): > 2 µM
IC50 (P30-OHK): > 2 µM
IC50 (RCC10RGB): > 2 µM
IC50 (RS4-11): > 2 µM
IC50 (SHP77): > 2 µM
IC50 (SK-MEL-2): > 2 µM
IC50 (BB49-HNC): > 2 µM
IC50 (BB65-RCC): > 2 µM
IC50 (C8166): > 2 µM
IC50 (TE-10): > 2 µM
IC50 (TE-8): > 2 µM
IC50 (TGBC24TKB): > 2 µM
IC50 (VA-ES-BJ): > 2 µM
IC50 (CGTH-W-1): > 2 µM

O=C1NC(=O)c2c1c(-c1ccccc1Cl)cc1[nH]c3ccc(O)cc3c21
IC50 (COLO-829): > 2 µM
IC50 (DB): 1.3 µM
IC50 (DEL): 0.485 µM
IC50 (DMS-114): > 2 µM
IC50 (DOHH-2): > 2 µM
IC50 (ES3): > 2 µM
IC50 (ES4): 0.924 µM
IC50 (ES7): > 2 µM
IC50 (EW-16): > 2 µM
IC50 (HCC2218): > 2 µM
IC50 (HEL): 1.22 µM
IC50 (HH): 1.64 µM
IC50 (IST-MES1): > 2 µM
IC50 (JAR): > 2 µM
IC50 (K562): > 2 µM
IC50 (K5): > 2 µM
IC50 (KE-37): 0.484 µM
IC50 (KG-1): 0.862 µM
IC50 (KGN): 1.68 µM
IC50 (KM12): > 2 µM
IC50 (KY821): > 2 µM
IC50 (KYSE-270): 1.48 µM
IC50 (LAMA-84): > 2 µM
IC50 (LAN-6): > 2 µM
IC50 (LB831-BLC): > 2 µM
IC50 (LC-2-ad): > 2 µM
IC50 (LOX IMVI): > 2 µM
IC50 (LU-134-A): 0.917 µM
IC50 (LU-139): > 2 µM
IC50 (MEG-01): > 2 µM
IC50 (MSTO-211H): > 2 µM
IC50 (MZ2-MEL): > 2 µM
IC50 (Mo): > 2 µM
IC50 (NB69): > 2 µM
IC50 (NOS-1): > 2 µM
IC50 (NTERA-2-cl-D1): > 2 µM
IC50 (P30-OHK): 1.91 µM
IC50 (RCC10RGB): > 2 µM
IC50 (RS4-11): 0.898 µM
IC50 (SHP77): > 2 µM
IC50 (SK-MEL-2): > 2 µM
IC50 (BB49-HNC): > 2 µM
IC50 (BB65-RCC): 1.42 µM
IC50 (C8166): > 2 µM
IC50 (TE-10): > 2 µM
IC50 (TE-8): > 2 µM
IC50 (TGBC24TKB): > 2 µM
IC50 (VA-ES-BJ): 1.5 µM
IC50 (CGTH-W-1): > 2 µM
